{"source": "paper PMC7345637", "about": "“Characterization of Synthetic Tf2 as a NaV1.3 Selective Pharmacological Probe” (Biomedicines, 2020)", "key": {"C57BL/6J mice": {"test_system": "C57BL/6J mice", "test": "Spontaneous pain behaviors after intraplantar injection, wildtype mice", "settings": "mouse, in vivo", "excerpt": "For behavioral assessment, we used adult male wildtype or homozygous NaV1.9-deficient (NaV1.9^-/-) mice aged 6–8 weeks (~25g) on a C57BL/6J background. Homozygous Nav1.9 knockout mice on a C57BL/6J background were generated using CRISPR/Cas9 technology by the Queensland Facility for Advanced Genome Editing (The University of Queensland, Australia). In brief, two sgRNAs were designed to target exon 2 of the Scn11a gene. The deletion of exon 2 generated a frame shift mutation resulting in the introduction of stop codons in exon 3. […]\n[…]. Mice were then placed individually into polyvinyl boxes (10 × 10 × 10 cm) and recorded by video for 20 min post-injection. The number of spontaneous pain behaviors, including licks, shakes, and flinches, were counted later by a blinded observer. Once spontaneous pain behavior had ceased, mechanical thresholds were assessed using an electronic von Frey apparatus (MouseMet Electronic von Frey, TopCat Metrology, Ely, UK), heat thresholds were assessed using the thermal probe test (MouseMet Thermal), and weight bearing was assessed using the Catwalk XT (Noldus Information Technology, Wageningen, The Netherlands) as previously described. To quantify weight bearing, the parameter ‘mean intensity of the 15 most intense pixels’ was used as a surrogate measure.\nData were plotted and analyzed by GraphPad Prism, versions 8.2.0 and 8.4.2. […]"}, "NaV1.1": {"test_system": "NaV1.1", "settings": "cited from earlier work", "excerpt": "(§1) Selective VGSC modulators remain useful tool compounds for delineating the contribution of particular isoforms to the excitability of neurons in both physiological and pathological states. […] In an attempt to rationally ..."}, "NaV1.3": {"test_system": "NaV1.3", "settings": "cited from earlier work", "excerpt": "as §1"}, "mouse DRG neurons": {"test_system": "mouse DRG neurons", "type": "cell-based"}, "[1]": {"test_system": "voltage-gated calcium channels (CaV)", "settings": "cited from earlier work", "excerpt": "Tf2 caused Ca^2+ influx in both small and large mouse adult DRG neurons, which was surprising given NaV1.3 is only expressed at significant levels in embryonic sensory neurons or in adult neurons after axotomy. […] As DRG neurons in this study were isolated from all spinal levels, we cannot rule out the presence of these NaV1.3-expressing neurons in culture. However, given the definitive lack of proteomic evidenc ..."}}, "data": [{"molecule": "O=C(Nc1ccc(S(=O)(=O)Nc2nccs2)cc1)C(c1ccccc1)c1ccccc1", "note": "[ICA-121431]", "values": [{"measurement": "effect on Tf2-induced spontaneous flinching", "setting": "C57BL/6J mice", "result": "no effect on Tf2-induced spontaneous flinching"}, {"measurement": "activity at NaV1.1", "setting": "NaV1.1", "result": "off-target activity at NaV1.1"}, {"measurement": "NaV1.3 inhibition", "setting": "NaV1.3", "result": "most potent NaV1.3 inhibitor described to the date"}]}, {"molecule": "NC1=N[C@H](O)[C@H]2[C@H]3O[C@]4(O)O[C@@H]([C@@H](O)[C@@]2(N1)[C@@H]4O)[C@]3(O)CO", "note": "[TTX, tetrodotoxin]", "values": [{"measurement": "block of Tf2-induced DRG neuron activation", "setting": "mouse DRG neurons", "result": "completely blocked"}]}, {"molecule": "kurtoxin: scorpion toxin from Parabuthus transvaalicus (protein, UniProt P58910 1-63, looked up) Kurtoxin: KIDGYPVDYWNCKRICWYNNKYCNDLCKGLKADSGYCWGWTLSCYCQGLPDNARIKRSGRCRA", "values": [{"measurement": "modulation of voltage-gated calcium channels (CaV)", "setting": "[1]", "result": "modulate members of the family of voltage-gated calcium channels (CaV)"}]}]}
